# Assay results published in patent US10532986B2, “Cyclic compound acting as PDE4 inhibitor” (MEDSHINE DISCOVERY INC., priority 2016, dated 2020).
# pIC50: −log10 of the molar value.
# Molecular target: T1, Recombinant human PDE4B (Homo sapiens, UniProt Q07343)
# T1 construct: amino acid 305-end; GST (N); made in house; host or cells: Sf9 insect cells (baculovirus)
# Assay: Inhibitory activity of the compounds against PDE 4B (fluorescence polarization, Transcreener AMP2/GMP2)
# Format: biochemical
# Settings: recombinant human PDE4B (aa 305-end, GST tag); 1 μM cAMP; 1 hour at room temperature
# Method: Inhibitory activity of the compounds against PDE 4B
# The assay is based on the fluorescence polarization measuring AMP/GMP production as a result of the enzyme activity by displacement of Tracer binding to the AMP/GMP antibody.
# 10 mM Tris-HCl (pH 7.5), 5 mM MgCl2, 0.01% Brij 35, 1 mM DTT and 1% DMSO.
# Recombinant human PDE4B (Gene accession number: NM_002600; amino acid 305-end) was expressed by baculovirus in Sf9 insect cells using an N-terminal GST tag. MW=78 kDa.
# Transcreener® AMP^2/GMP^2 antibody and AMP^2/GMP^2 AlexaFluor 633 tracer
# i) Recombinant human PDE4B and the enzyme substrate (1 μM cAMP) were dissolved in the newly-prepared buffer solution, respectively.
# ii) The PDE4B buffer solution defined as above was transferred into the reaction wells.
# iii) The compound which was dissolved in 100% DMSO was added to the reaction wells of the PDE4B buffer solution by Acoustic technology (Echo550; nanoliter range) and incubated at room temperature for 10 minutes.
# iv) The enzymatic buffer solution was then added to the reaction wells defined as above to initiate the reaction.
# v) The reaction was incubated at room temperature for 1 hour.
# vi) The reaction was terminated by adding detecting mixture (Transcreener® AMP^2/GMP^2 antibody and AMP^2/GMP^2 AlexaFluor 633 tracer) and incubated for 90 minutes with gentle mixing. The measurement range of fluorescence polarization is Ex/Em=620/688.
# The fluorescence polarization signal was converted into nM based on the AMP/GMP standard curve and the percent enzyme activity relative to DMSO calculated by Excel. GraphPad Prism was used to plot the curves (Drawing Medicine Icon)
# T1 sequence (Q07343 305-736 limits assumed): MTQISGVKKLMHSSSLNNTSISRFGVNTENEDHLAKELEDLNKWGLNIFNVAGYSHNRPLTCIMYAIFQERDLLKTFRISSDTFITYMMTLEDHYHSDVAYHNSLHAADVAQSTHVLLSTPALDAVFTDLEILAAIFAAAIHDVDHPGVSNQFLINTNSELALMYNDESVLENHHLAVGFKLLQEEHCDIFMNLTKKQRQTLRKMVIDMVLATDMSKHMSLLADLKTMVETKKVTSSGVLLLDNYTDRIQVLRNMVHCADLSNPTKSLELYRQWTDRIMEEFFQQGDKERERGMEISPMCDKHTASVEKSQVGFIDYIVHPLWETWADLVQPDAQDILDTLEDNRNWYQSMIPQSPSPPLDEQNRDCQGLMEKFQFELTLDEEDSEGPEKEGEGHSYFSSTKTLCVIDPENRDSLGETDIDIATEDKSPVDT
row,SMILES,pIC50
1,CCOc1cc([C@@H](CS(C)(=O)=O)n2c(=O)[nH]c3c(C4CCOCC4)cccc32)ccc1OC [WX081],8.86
2,CCOc1cc([C@@H](CS(C)(=O)=O)n2c(=O)n(C3CC3)c3cc(F)ccc32)ccc1OC [WX021],7.19
3,CCOc1cc([C@@H](CS(C)(=O)=O)n2c(=O)[nH]c3c(-c4cnn(C)c4)cccc32)ccc1OC [WX078],9.09
4,CCOc1cc([C@@H](CS(C)(=O)=O)n2c(=O)[nH]c3cc(-c4ccccc4CC)ccc32)ccc1OC [WX019],> 9.30
5,CCOc1cc([C@@H](CS(C)(=O)=O)n2c(=O)[nH]c3c(Br)cccc32)ccc1OC [WX007],8.04
6,CCOc1cc([C@@H](CS(C)(=O)=O)n2c(=O)[nH]c3c(-n4cccn4)cccc32)ccc1OC [WX084],7.74
7,CCOc1cc([C@@H](CS(C)(=O)=O)n2c(=O)[nH]c3cc(C(F)(F)F)cc(F)c32)ccc1OC [WX006],7.59
8,CCOc1cc([C@@H](CS(C)(=O)=O)n2c(=O)[nH]c3cc(-c4ccccc4C)ccc32)ccc1OC [WX014],9.22
9,CCOc1cc([C@@H](CS(C)(=O)=O)n2c(=O)[nH]c3cc(C(=O)OC(C)C)ccc32)ccc1OC [WX032],8.69
10,CCOc1cc([C@@H](CS(C)(=O)=O)n2c(=O)[nH]c3ccccc32)ccc1OC [WX010],7.71
11,CCOc1cc([C@@H](CS(C)(=O)=O)n2c(=O)[nH]c3c(-c4ncc(F)cn4)cccc32)ccc1OC [WX096],8.14
12,C=C(C)c1cccc2c1[nH]c(=O)n2[C@H](CS(C)(=O)=O)c1ccc(OC)c(OCC)c1 [WX092],8.67
13,CCOc1cc([C@@H](CS(C)(=O)=O)n2c(=O)n(CC(F)(F)F)c3cc(F)ccc32)ccc1OC [WX047],7.35
14,CCOc1cc(C(CS(C)(=O)=O)n2c(=O)[nH]c3cc(-c4ccccc4F)ccc32)ccc1OC(F)F (stereo not shown) [WX075],9.17
15,CCOc1cc([C@@H](CS(C)(=O)=O)n2c(=O)n(CC#N)c3cc(C(F)(F)F)ccc32)ccc1OC [WX055],7.67
16,CCOc1cc([C@@H](CS(C)(=O)=O)n2c(=O)[nH]c3c(-c4cccs4)cccc32)ccc1OC [WX093],8.90
17,CCOc1cc([C@@H](CS(C)(=O)=O)n2c(=O)n(CC#N)c3cc(Cl)ccc32)ccc1OC [WX045],8.45
18,CCOc1cc([C@@H](CS(C)(=O)=O)n2c(=O)n(Cc3ccc(F)cc3)c3cc(Br)ccc32)ccc1OC [WX066],8.81
19,CCOc1cc([C@@H](CS(C)(=O)=O)n2c(=O)[nH]c3c(C(C)C)cccc32)ccc1OC [WX079],8.60

row,SMILES,pIC50
1,CCOc1cc([C@@H](CS(C)(=O)=O)n2c(=O)n(Cc3ccccc3F)c3cc(Br)ccc32)ccc1OC [WX064],9.04
2,CCOc1cc([C@@H](CS(C)(=O)=O)n2c(=O)[nH]c3cc(-c4nccnc4N(C)C)ccc32)ccc1OC [WX029],> 9.30
3,CCOc1cc(C(CS(C)(=O)=O)n2c(=O)n(CCS(C)(=O)=O)c3cc(Br)ccc32)ccc1OC (stereo not shown) [WX063],7.68
4,COc1ccc(C(CS(C)(=O)=O)n2c(=O)[nH]c3cc(-c4ccccc4F)ccc32)cc1 (stereo not shown) [WX076],7.66
5,CCOc1cc([C@@H](CS(C)(=O)=O)n2c(=O)n(CC(F)F)c3c(Cl)cccc32)ccc1OC [WX061],7.41
6,CCOc1cc([C@@H](CS(C)(=O)=O)n2c(=O)[nH]c3cc(-c4ccc(F)cc4)ccc32)ccc1OC [WX013],8.21
7,CCOc1cc([C@@H](CS(C)(=O)=O)n2c(=O)[nH]c3cc(-c4ccccc4C(C)C)ccc32)ccc1OC [WX018],> 9.30
8,CCOc1cc([C@@H](CS(C)(=O)=O)n2c(=O)[nH]c3cc(-c4ccccc4C#N)ccc32)ccc1OC [WX028],> 9.30
9,CCOc1cc([C@@H](CS(C)(=O)=O)n2c(=O)[nH]c3cc(Br)cc(F)c32)ccc1OC [WX001],8.43
10,CCOc1cc([C@@H](CS(C)(=O)=O)n2c(=O)[nH]c3cc(-c4cccc(F)c4)ccc32)ccc1OC [WX012],8.66
11,CCOc1cc([C@@H](CS(C)(=O)=O)n2c(=O)n(C3CC3)c3cc(Cl)ccc32)ccc1OC [WX020],7.90
12,CCOc1cc([C@@H](CS(C)(=O)=O)n2c(=O)n(CC(F)(F)F)c3cc(Cl)ccc32)ccc1OC [WX037],7.97
13,CCOc1cc([C@@H](CS(C)(=O)=O)n2c(=O)[nH]c3c(-c4ccccc4)cccc32)ccc1OC [WX090],9.47
14,CCOc1cc([C@@H](CS(C)(=O)=O)n2c(=O)[nH]c3c(-c4ccc(F)cc4)cccc32)ccc1OC [WX089],8.60
15,CCOC(=O)c1ccc2c(c1)n(C)c(=O)n2[C@H](CS(C)(=O)=O)c1ccc(OC)c(OCC)c1 [WX074],7.99
16,CCOc1cc([C@@H](CS(C)(=O)=O)n2c(=O)n(C(C)C)c3cc(-c4ccccc4F)ccc32)ccc1OC [WX070],8.90
17,CCOc1cc([C@@H](CS(C)(=O)=O)n2c(=O)[nH]c3cc(Cl)ccc32)ccc1OC [WX003],8.65
18,CCOc1cc([C@@H](CS(C)(=O)=O)n2c(=O)n(CC(F)(F)F)c3cc(C(F)(F)F)ccc32)ccc1OC [WX052],7.86
19,CCOc1cc([C@@H](CS(C)(=O)=O)n2c(=O)[nH]c3c(-c4ccccc4F)cccc32)ccc1OC [WX087],8.89

# Next, values leading:
row,pIC50,SMILES
1,> 9.30,CCOc1cc([C@@H](CS(C)(=O)=O)n2c(=O)[nH]c3c(-c4ccccc4C)cccc32)ccc1OC [WX083]
2,7.58,CCOc1cc([C@@H](CS(C)(=O)=O)n2c(=O)n(C)c3cc(C(F)(F)F)ccc32)ccc1OC [WX053]
3,8.12,CCOc1cc([C@@H](CS(C)(=O)=O)n2c(=O)n(CC3CC3)c3cc(Cl)ccc32)ccc1OC [WX040]
4,8.85,CCOc1cc([C@@H](CS(C)(=O)=O)n2c(=O)[nH]c3cc(-c4ncccc4F)ccc32)ccc1OC [WX025]
5,9.28,CCOc1cc([C@@H](CS(C)(=O)=O)n2c(=O)[nH]c3cc(-c4ccccc4F)ccc32)ccc1OC [WX011]
6,7.24,CCOc1cc([C@@H](CS(C)(=O)=O)n2c(=O)n(C)c3cc(F)ccc32)ccc1OC [WX048]
7,8.84,CCOc1cc([C@@H](CS(C)(=O)=O)n2c(=O)n(Cc3cccc(F)c3)c3cc(Br)ccc32)ccc1OC [WX065]
8,7.26,CCOc1cc([C@@H](CS(C)(=O)=O)n2c(=O)n(CC(F)(F)F)c3c(Cl)cccc32)ccc1OC [WX062]
9,> 9.30,CCOc1cc([C@@H](CS(C)(=O)=O)n2c(=O)[nH]c3cc(-c4ccccc4OCC)ccc32)ccc1OC [WX024]
10,7.50,CCOC(=O)c1ccc2c(c1)n(CC(F)(F)F)c(=O)n2[C@H](CS(C)(=O)=O)c1ccc(OC)c(OCC)c1 [WX073]
11,8.00,CCOc1cc([C@@H](CS(C)(=O)=O)n2c(=O)n(CC)c3cc(Cl)ccc32)ccc1OC [WX039]
12,8.29,CCOc1cc([C@@H](CS(C)(=O)=O)n2c(=O)n(C(C)C)c3cc(Cl)ccc32)ccc1OC [WX044]
13,8.96,CCOc1cc([C@@H](CS(C)(=O)=O)n2c(=O)[nH]c3cc(C(=O)OCC(F)(F)F)ccc32)ccc1OC [WX033]
14,7.33,CCOc1cc(C(CS(C)(=O)=O)n2c(=O)oc3cc(Br)ccc32)ccc1OC (stereo not shown) [WX077]
15,8.35,CCOc1cc([C@@H](CS(C)(=O)=O)n2c(=O)n(CCO)c3cc(Cl)ccc32)ccc1OC [WX043]
16,8.99,CCOc1cc([C@@H](CS(C)(=O)=O)n2c(=O)[nH]c3c(C4=CCOCC4)cccc32)ccc1OC [WX080]
17,8.25,CCOc1cc([C@@H](CS(C)(=O)=O)n2c(=O)[nH]c3c(C(=O)N4CCCC4)cccc32)ccc1OC [WX085]
18,7.44,CCOc1cc([C@@H](CS(C)(=O)=O)n2c(=O)[nH]c3c(C(C)=O)cccc32)ccc1OC [WX086]
19,7.94,CCOc1cc([C@@H](CS(C)(=O)=O)n2c(=O)[nH]c3cc(F)ccc32)ccc1OC [WX004]
20,8.88,CCOc1cc([C@@H](CS(C)(=O)=O)n2c(=O)[nH]c3cc(-c4nccnc4C4CC4)ccc32)ccc1OC [WX030]
21,7.00,CCOc1cc([C@@H](CS(C)(=O)=O)n2c(=O)n(C)c3cc(F)cc(F)c32)ccc1OC [WX057]
22,7.83,CCOC(=O)c1ccc2c(c1)n(CC(F)F)c(=O)n2[C@H](CS(C)(=O)=O)c1ccc(OC)c(OCC)c1 [WX072]
23,8.00,CCOc1cc([C@@H](CS(C)(=O)=O)n2c(=O)n(CC(F)F)c3cc(F)ccc32)ccc1OC [WX046]
24,7.94,CCOc1cc([C@@H](CS(C)(=O)=O)n2c(=O)n(CC#N)c3cc(F)ccc32)ccc1OC [WX049]
25,7.40,CCOc1cc([C@@H](CS(C)(=O)=O)n2c(=O)n(C3CC3)c3cc(C(F)(F)F)ccc32)ccc1OC [WX022]
26,7.57,CCOc1cc([C@@H](CS(C)(=O)=O)n2c(=O)n(CC(F)F)c3cc(C(F)(F)F)ccc32)ccc1OC [WX051]
27,9.15,CCOc1cc([C@@H](CS(C)(=O)=O)n2c(=O)n(C)c3cc(-c4ccccc4F)ccc32)ccc1OC [WX068]
28,8.20,CCOc1cc([C@@H](CS(C)(=O)=O)n2c(=O)[nH]c3cc(Br)ccc32)ccc1OC [WX009]
29,> 9.30,CCOc1cc([C@@H](CS(C)(=O)=O)n2c(=O)[nH]c3c(-c4ccccc4OC)cccc32)ccc1OC [WX082]
